Where a name gives a salt, the structure may show the parent alone.
Assays:
[1] = Acute toxicity in white mice with subcutaneous application; details: mouse, in vivo, sc
Text: *The toxicity in mg/kg body weight is understood as acute toxicity in
white mice with subcutaneous application.

[2] = system: antimicrobial; details: known compound, background statement; cited from earlier work
[3] = known compound, background statement; cited from earlier work
[4] = known compound, background statement; cited from earlier work; remark: listed apart in the source
[5] = system: Gram-Positive Bacteria; test: Effectiveness against gram-positive bacteria (general statement); format: cell-based; details: in words
[6] = Solubility in water; format: physicochemical; details: in words
[7] = Stability; format: physicochemical; details: in words

SMILES	LD50 [1] [mg/kg]	solubility in water [6]	further results
CCc1cc(Cc2ccccc2)cc(Br)c1O [2-bromo-6-ethyl-4-benzylphenol, 6-bromo-2-ethyl-4-benzylphenol]	2800	–	–
Cc1cc(Cc2ccccc2)cc(Br)c1O [2-bromo-6-methyl-4-benzylphenol, 6-bromo-2-methyl-4-benzylphenol]	1500	–	–
Cc1cc(Cc2ccccc2)cc(Cl)c1O [2-chloro-6-methyl-4-benzylphenol]	1200	–	antimicrobial efficacy [2]: generally good antimicrobial efficacy; skin compatibility [3]: well skin-compatible; water-solubility [4]: difficult water-solubility
Cc1cc(Cc2ccccc2)cc(Cl)c1O [calcium salt of 2-chloro-6-methyl-4-benzylphenol] [calcium salt of 6-chloro-2-methyl-4-benzylphenol]	–	only little soluble in water	effectiveness against gram-positive bacteria [5]: particularly effective; stability [7]: very stable
Cc1cc(Cc2ccccc2)cc(Cl)c1O [potassium salt of 6-chloro-2-methyl-4-benzylphenol]	–	good	–
Cc1cc(Cc2ccccc2)cc(Cl)c1O [sodium salt of 6-chloro-2-methyl-4-benzylphenol]	–	well water-soluble	–
